Measured values as given in US9096607B2, “Tumor necrosis factor inhibitors” (THE TRUSTEES OF THE UNIVERSITY OF PENNSYLVANIA, priority 2005, dated 2015).
Numbering of substitutions follows the chain as printed.

Tests used:
[1] = test system: L929 cells; assay: Inhibition of TNF-α mediated cytolysis of L929 cells (Alamar Blue); type: cell-based, murine; conditions: TNF-α 100 pg/mL, actinomycin D 1 μM
Source text: L929 cultured murine fibroblasts cells were obtained from American Type Culture Collection (Manassas, Va.). Tissue culture reagents were from Invitrogen or Sigma-Aldrich. TNF-α and Actinomycin D were from Sigma-Aldrich. Alamar Blue reagents (Cell Titer Blue™) were from Promega. The test compounds I-1 through I-16, II-1 through II-8, and III-1 through III-3 were obtained commercially or can be prepared as described above. The test compounds were individually dissolved in dimethylsulfoxide (DMSO). The test compounds were maintained at 4° C. when not in use. Other reagents were high-purity (ACS-grade, HPLC-grade, MilliQ water, or similar).
Stock L929 cells were grown on tissue culture plastic in complete DMEM (Dulbecco's Modified Eagles Medium) supplemented with 10% FBS (Fetal Bovine Serum), NEAA (non-essential amino acids), and glutamine. L929 cells were plated using the same medium on 96-well tissue culture plates at high density (i.e., ˜4×10^4 cells/well, or similar) before use.
Approximately 20 h after plating, the L929 cells on 96-well plates were re-fed with fresh medium containing one of the test compounds in a concentration selected from 100 μM, 50 μM, 25 μM as a “pre-treatment.” Approximately 30-60 min later, samples were treated with an additional amount of test compound (in the same amount and at the same concentration as the pre-treatment) prepared in medium containing TNF-α (200 pg/mL), and actinomycin D (2 μM). The final concentration of TNF-α in assays was 100 pg/mL. The final concentration of actinomycin D in assays was 1 μM. The plates were incubated for an additional 22-23 h, the Alamar Blue assay reagents were added and metabolic cell viability was determined from reduction of a fluorogenic Alamar Blue derivative.
The temperature was maintained at 37° C. with 5% CO2 and humidified. The metabolic viability was measured 1-2 h after addition of assay reagents/Alamar Blue derivative using TECAN SaFire fluorescence plate reader (Tecan Group Ltd., Maennedorf, Switzerland).
Inhibition of TNF-α induced cytolysis by a test compound (X) at a given concentration (y) was calculated as follows: […]

[2] = molecular target: T1, wild type TNF-R1 (Homo sapiens, UniProt P19438); assay: Surface plasmon resonance, TNF-α binding to wild type TNF-R1; conditions: SPR
T1 construct: The ectodomain of wild type TNF receptor 1 was obtained by PCR from pKP13; made in house
T1 sequence (P19438 30-211 limits assumed): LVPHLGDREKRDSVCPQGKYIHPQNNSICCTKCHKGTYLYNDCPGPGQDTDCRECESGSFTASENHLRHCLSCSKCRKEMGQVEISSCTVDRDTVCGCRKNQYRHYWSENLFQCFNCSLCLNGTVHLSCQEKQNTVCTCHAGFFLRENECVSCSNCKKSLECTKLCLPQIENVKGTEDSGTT
Source text: (§1) Mutations of the TNF-R1 receptor were made at residues 82Q and 112F in the cavity, which were mutated to 82E and 112E respectively. The structural integrity of the mutant receptor was verified by ligand binding in surface plasmon resonance (SPR) studies. […] TNF-α retained the ability to bind to the mutant receptor, albeit with somewhat reduced affinity. These studies confirm that the test compound bound to a single and specific cavity on wild type TNF-R1.
(§2) Recombinant TNF receptor wild type and mutant were immobilized to the CM5 sensor chip with a surface density of 2,000 resonance units. The binding affinity of TNF-α to TNF-R1 was estimated by BiaCORE 3000 (BiaCORE, Uppsala, Sweden) at 25° C. The apparent rate constants (kon and koff) and the equilibrium binding constant (Kd) for TNF/TNF-R binding interaction were estimated from the kinetic analysis of sensorgrams, using the BIA evaluation 3.0 software (BiaCORE).

[3] = molecular target: T2, mutant TNF-R1 (Homo sapiens, UniProt P19438, F141E/Q111E); assay: Surface plasmon resonance, TNF-α binding to mutant TNF-R1; conditions: SPR, mutant TNF-R1 (82E, 112E)
T2 construct: The ectodomain of wild type TNF receptor 1 was obtained by PCR from pKP13; made in house
T2 sequence (P19438 30-211 Q111E/F141E limits assumed): T1 sequence (P19438 30-211 limits assumed) with Q82E, F112E
Source text: as §1, §2

| Compound | % Inhibition at: 25 μM ([1]; 25 μM compound) | % Inhibition at: 50 μM ([1]; 50 μM compound) | % Inhibition at: 100μM ([1]; 100 μM compound) | Kd [2] | Kd [3] |
| --- | --- | --- | --- | --- | --- |
| O=[N+]([O-])c1cccc(NN=C(c2ccc(Cl)cc2)c2ccc(Cl)cc2)c1 [III-3, N-(4,4′-Dichlorobenzhydrylidene)-N-(3-nitrophenyl)hydrazine] | 6.6% | 3.4% | 8.1% |  |  |
| TNF-α |  |  |  | 0.000379 µM | 4.65 µM |
